Laboratory results as given in paper PMC9894685, “Abscisic acid agonists suitable for optimizing plant water use” (Frontiers in Plant Science, 2023).

Tests used:
Arabidopsis plants = assay: Foliar administration and thermal imaging of leaf temperature (transpiration), Arabidopsis; type: in vivo, Arabidopsis thaliana
[1] = test system: Arabidopsis aba2-1 protoplasts; assay: Transient ABA response in Arabidopsis protoplasts (pRD29B::LUC, RCAR11 and ABI2 effectors); type: cell-based, Arabidopsis thaliana; settings: aba2-1 protoplasts, 18 h ligand exposure
Method: Preparation of Arabidopsis protoplasts, transfection of the effector DNA, and analysis of LUC activity were performed as described ([Tischer et al., 2017]). In essence, 10^5 mesophyll protoplasts from leaves of the ABA deficient mutant aba2-1 ([Schwartz et al., 1997]) were transfected with 4 µg DNA of the pRD29B::LUC construct as an ABA-responsive reporter and 3 µg of p35S::GUS (β-glucuronidase reporter gene) expression cassette as an internal control for normalization. In addition, 3 µg p35S::RCAR11 or the empty vector with the same expression cassette were co-expressed with 0.1 µg p35S::ABI2 effector constructs ([Tischer et al., 2017]), and the ligand-dependent induction of ABA-responsive reporter expression were assessed after incubation at 22°C. The expression of LUC and GUS was determined 18 h after transfection and ligand administration.

RCAR1-ABI2 = target: T1, RCAR1-ABI2 (Arabidopsis thaliana, UniProt O04719+Q84MC7); assay: In vitro phosphatase assay, ABI2 with RCAR1; type: biochemical; settings: for Statistical significance of RCAR1-mediated inhibition of ABI2 phosphatase activity vs ABA / Statistical significance of RCAR1-mediated inhibition of ABI2 phosphatase activity vs CCP1: Fig. 3B
T1 construct: 6xHis (N); made in house; host or cells: Escherichia coli BL21
T1 sequence (Q84MC7 1-187): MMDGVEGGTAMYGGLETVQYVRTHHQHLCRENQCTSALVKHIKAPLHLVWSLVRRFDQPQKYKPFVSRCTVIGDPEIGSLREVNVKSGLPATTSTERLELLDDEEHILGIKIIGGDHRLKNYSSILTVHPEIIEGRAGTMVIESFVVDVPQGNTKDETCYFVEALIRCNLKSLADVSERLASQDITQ
T1 sequence (O04719 1-423): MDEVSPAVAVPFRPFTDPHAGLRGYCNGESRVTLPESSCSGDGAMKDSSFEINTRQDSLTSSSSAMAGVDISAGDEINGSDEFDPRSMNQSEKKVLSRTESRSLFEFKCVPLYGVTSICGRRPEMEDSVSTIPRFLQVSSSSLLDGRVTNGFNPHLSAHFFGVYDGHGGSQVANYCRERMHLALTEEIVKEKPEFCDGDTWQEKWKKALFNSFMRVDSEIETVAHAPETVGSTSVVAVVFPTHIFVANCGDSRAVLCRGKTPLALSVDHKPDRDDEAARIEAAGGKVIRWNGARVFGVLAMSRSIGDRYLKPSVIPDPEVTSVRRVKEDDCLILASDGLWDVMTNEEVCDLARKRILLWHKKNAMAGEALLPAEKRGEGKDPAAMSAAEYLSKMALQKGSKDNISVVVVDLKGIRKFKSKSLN
Method: (§1) Expression, purification, and analysis of RCAR and PP2C proteins were performed essentially as described ([Ruschhaupt et al., 2019]). Briefly, the ABA receptors RCAR1, RACR8, and RCAR11 were expressed with an aminoterminal histidine tag using the pSEVA431_LII_6xHIS::RCAR1/RCAR8/RCAR11. ABA coreceptors were expressed as histidine-tagged fusions with the maltose-binding protein using the pSEVA431_LII_6xHIS::MBP::ABI2/HAB1. All constructs were transformed and expressed in Escherichia coli strain BL21 and purified to homogeneity according to supplier’s instruction (GE Healthcare, Chicago, USA). The receptor assay was performed with 100 nM PP2C and a two-fold molar excess of RCAR. Values are means ± SD of three replicates. […] The maximum inhibition was set to 100% in the figures. The phosphatase activity was measured using 4-methylumbelliferyl-phosphate as a substrate ([Meinhard and Grill, 2001]). The increase in fluorescence was recorded over 25 min with excitation and emission wavelengths at 360 and 460 nm, respectively, using a Synergy 2 plate reader (Bio-Tec, Winooski, USA).

RCAR1-HAB1 = target: T2, RCAR1-HAB1; assay: In vitro phosphatase assay, HAB1 with RCAR1; type: biochemical, Arabidopsis thaliana; settings: 100 nM HAB1, 200 nM RCAR1
T2 construct: 6xHis (N); made in house; host or cells: Escherichia coli BL21
Method: as §1

In the case of `CCC(=C/C(=O)O)/C=C/C(O)(C(C)C)C1(C#N)CC1` (centres unmarked) [CCP2], the “Efficiency in minimizing transpiration compared to ABA” value (Arabidopsis plants; foliar application) is reported as “by an order of magnitude more efficient than ABA”, the “ABA concentration achieving a temperature increase similar to 10 µM of the CCP” value (Arabidopsis plants; one day after application) is reported as “about 100 µM” and the “Activity and persistence of minimized transpiration compared to ABA” value (Arabidopsis plants; single application 100 µM, recorded for 19 days) is reported as “more active and persistent than ABA”. The “Induction of ABA signaling compared to ABA” value [1] was “ABA-like activity”, the “Statistical significance of RCAR1-mediated inhibition of ABI2 phosphatase activity vs ABA” value (RCAR1-ABI2; 0.003 µM) was “ns (Otherwise, the difference is regarded as insignificant indicated as “ns”)” and the “Statistical significance of RCAR1-mediated inhibition of ABI2 phosphatase activity vs CCP1” value (RCAR1-ABI2; 0.003 µM) was “ns (Otherwise, the difference is regarded as insignificant indicated as “ns”)”. For the same compound, the “Statistical significance of RCAR1-mediated inhibition of ABI2 phosphatase activity vs ABA” value (RCAR1-ABI2; 0.01 µM) was “ns (Otherwise, the difference is regarded as insignificant indicated as “ns”)”, the “Statistical significance of RCAR1-mediated inhibition of ABI2 phosphatase activity vs CCP1” value (RCAR1-ABI2; 0.01 µM) was “ns (Otherwise, the difference is regarded as insignificant indicated as “ns”)” and the “Statistical significance of RCAR1-mediated inhibition of ABI2 phosphatase activity vs ABA” value (RCAR1-ABI2; 0.03 µM) was “s (P < 0.05 (one-way ANOVA) is considered as a significant difference and expressed as “s”)”. The “Statistical significance of RCAR1-mediated inhibition of ABI2 phosphatase activity vs CCP1” value (RCAR1-ABI2; 0.03 µM) was “ns (Otherwise, the difference is regarded as insignificant indicated as “ns”)”, the “Statistical significance of RCAR1-mediated inhibition of ABI2 phosphatase activity vs ABA” value (RCAR1-ABI2; 0.1 µM) was “s (P < 0.05 (one-way ANOVA) is considered as a significant difference and expressed as “s”)” and the “Statistical significance of RCAR1-mediated inhibition of ABI2 phosphatase activity vs CCP1” value (RCAR1-ABI2; 0.1 µM) was “s (P < 0.05 (one-way ANOVA) is considered as a significant difference and expressed as “s”)”. For the same compound, the “IC50 relative to ABA (fold higher)” value (RCAR1-ABI2; 100 nM ABI2 and 200 nM RCAR1) was “approximately 100 fold”, the “Statistical significance of RCAR1-mediated inhibition of ABI2 phosphatase activity vs ABA” value (RCAR1-ABI2; 0.3 µM) was “s (P < 0.05 (one-way ANOVA) is considered as a significant difference and expressed as “s”)” and the “Statistical significance of RCAR1-mediated inhibition of ABI2 phosphatase activity vs CCP1” value (RCAR1-ABI2; 0.3 µM) was “s (P < 0.05 (one-way ANOVA) is considered as a significant difference and expressed as “s”)”. For the same compound, the “Statistical significance of RCAR1-mediated inhibition of ABI2 phosphatase activity vs ABA” value (RCAR1-ABI2; 1 µM) was “s (P < 0.05 (one-way ANOVA) is considered as a significant difference and expressed as “s”)”, the “Statistical significance of RCAR1-mediated inhibition of ABI2 phosphatase activity vs CCP1” value (RCAR1-ABI2; 1 µM) was “ns (Otherwise, the difference is regarded as insignificant indicated as “ns”)” and the “Statistical significance of RCAR1-mediated inhibition of ABI2 phosphatase activity vs ABA” value (RCAR1-ABI2; 3 µM) was “s (P < 0.05 (one-way ANOVA) is considered as a significant difference and expressed as “s”)”. For the same compound, the “Statistical significance of RCAR1-mediated inhibition of ABI2 phosphatase activity vs CCP1” value (RCAR1-ABI2; 3 µM) was “ns (Otherwise, the difference is regarded as insignificant indicated as “ns”)”, the “Statistical significance of RCAR1-mediated inhibition of ABI2 phosphatase activity vs ABA” value (RCAR1-ABI2; 10 µM) was “s (P < 0.05 (one-way ANOVA) is considered as a significant difference and expressed as “s”)” and the “Statistical significance of RCAR1-mediated inhibition of ABI2 phosphatase activity vs CCP1” value (RCAR1-ABI2; 10 µM) was “ns (Otherwise, the difference is regarded as insignificant indicated as “ns”)”. For the same compound, the “Statistical significance of RCAR1-mediated inhibition of ABI2 phosphatase activity vs ABA” value (RCAR1-ABI2; 30 µM) was “s (P < 0.05 (one-way ANOVA) is considered as a significant difference and expressed as “s”)”, the “Statistical significance of RCAR1-mediated inhibition of ABI2 phosphatase activity vs CCP1” value (RCAR1-ABI2; 30 µM) was “ns (Otherwise, the difference is regarded as insignificant indicated as “ns”)” and the “Statistical significance of RCAR1-mediated inhibition of ABI2 phosphatase activity vs ABA” value (RCAR1-ABI2; 100 µM) was “s (P < 0.05 (one-way ANOVA) is considered as a significant difference and expressed as “s”)”. The “Statistical significance of RCAR1-mediated inhibition of ABI2 phosphatase activity vs CCP1” value (RCAR1-ABI2; 100 µM) was “ns (Otherwise, the difference is regarded as insignificant indicated as “ns”)” and the “IC50 with HAB1 compared to the ABI2 results” value (RCAR1-HAB1) was “lower IC50 value”.
